The target of this assay is human CTPS1 (Homo sapiens (Human), UniProt P17812). As to the kind of experiment: hCTPS1 biochemical assay (ADP-Glo). As to conditions: hCTPS1 25 nM, ATP 120 uM, UTP 160 uM, GTP 60 uM, L-Glutamine 100 uM, 25 degrees C.
Chain of human CTPS1 (P17812 whole entry): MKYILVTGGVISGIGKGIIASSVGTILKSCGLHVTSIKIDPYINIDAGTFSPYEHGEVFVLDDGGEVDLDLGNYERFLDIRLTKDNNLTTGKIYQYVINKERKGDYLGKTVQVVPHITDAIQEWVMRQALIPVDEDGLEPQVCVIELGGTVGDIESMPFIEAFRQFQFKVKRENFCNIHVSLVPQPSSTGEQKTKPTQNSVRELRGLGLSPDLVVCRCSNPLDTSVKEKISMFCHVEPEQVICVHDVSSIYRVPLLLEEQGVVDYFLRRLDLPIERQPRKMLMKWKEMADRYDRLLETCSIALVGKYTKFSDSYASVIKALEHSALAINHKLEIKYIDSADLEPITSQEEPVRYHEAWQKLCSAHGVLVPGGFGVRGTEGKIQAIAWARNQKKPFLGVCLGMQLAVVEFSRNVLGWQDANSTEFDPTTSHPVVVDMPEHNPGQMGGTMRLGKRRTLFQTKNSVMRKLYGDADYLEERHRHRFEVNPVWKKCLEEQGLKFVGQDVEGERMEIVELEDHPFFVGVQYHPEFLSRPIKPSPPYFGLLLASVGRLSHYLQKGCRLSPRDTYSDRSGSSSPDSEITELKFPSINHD
For the molecule `CCC[C@@H]1CCN1c1ncc(C(=O)NCc2cc(NS(=O)(=O)C3CC3)ccn2)nc1C` (single isomer, unassigned) [I-58], the IC50 (in general, the point on the concentration scale where inhibition reaches its midpoint) was in the range of 100 to 1000 nM.

For the molecule `CCOc1cncc(-c2cnc(C(=O)N[C@@H](c3cc(NS(=O)(=O)C4CC4)ccn3)[C@H]3CCOC3)s2)n1` (single isomer, unassigned) [I-92], the IC50 was < 100 nM.

On to `CCOc1cncc(-c2cnc(C(=O)N[C@@H](c3cc(NS(=O)(=O)C4CC4)ccn3)[C@@H]3CCOC3)s2)n1` (single isomer, unassigned) [I-93], for which the IC50 was < 100 nM.

Consider `CCOc1cncc(-c2cnc(C(=O)N[C@H](c3cc(NS(=O)(=O)C4CC4)ccn3)[C@@H]3CCOC3)s2)n1` (single isomer, unassigned) [I-94], for which the IC50 was < 100 nM.

With `CCOc1cncc(-c2cnc(C(=O)N[C@H](c3cc(NS(=O)(=O)C4CC4)ccn3)[C@H]3CCOC3)s2)n1` (single isomer, unassigned) [I-95], the IC50 was < 100 nM.

Regarding `CCOc1cncc(-c2cnc(C(=O)N[C@H](CN3C[C@@H]4C[C@H]3CO4)c3cc(NS(=O)(=O)C4CC4)ccn3)s2)n1` (single isomer, unassigned) [I-101], the IC50 is < 100 nM.

Consider `CCOc1cncc(-c2cnc(C(=O)N[C@@H](CN3C[C@@H]4C[C@H]3CO4)c3cc(NS(=O)(=O)C4CC4)ccn3)s2)n1` (single isomer, unassigned) [I-102], for which the IC50 was < 100 nM.

For `CCOc1cncc(-c2cnc(C(=O)N[C@H](CN3CCC(N(C)C)CC3)c3cc(NS(=O)(=O)C4CC4)ccn3)s2)n1` (single isomer, unassigned) [I-103], the IC50 is < 100 nM.

For `CCOc1cncc(-c2cnc(C(=O)N[C@@H](CN3CCC(N(C)C)CC3)c3cc(NS(=O)(=O)C4CC4)ccn3)s2)n1` (single isomer, unassigned) [I-104], the 50% inhibitory concentration (IC50) was < 100 nM.

As for `CCOc1cncc(-c2cnc(C(=O)N[C@H](c3cc(NS(=O)(=O)C4CC4)ccn3)[C@H]3C[C@@H](N(C)C)C3)s2)n1` (single isomer, unassigned) [I-105], the 50% inhibitory concentration (IC50) is < 100 nM.

As for `CCOc1cncc(-c2cnc(C(=O)N[C@H](c3cc(NS(=O)(=O)C4CC4)ccn3)[C@H]3C[C@H](N(C)C)C3)s2)n1` (single isomer, unassigned) [I-106], the IC50 was < 100 nM.

In the case of `CCOc1cncc(-c2cnc(C(=O)N[C@@H](c3cc(NS(=O)(=O)C4CC4)ccn3)[C@H]3C[C@H](N(C)C)C3)s2)n1` (single isomer, unassigned) [I-107, N-((4-(cyclopropanesulfonamido)pyridin-2-yl)((1r, 3r)-3-(dimethylamino)cyclobutyl)methyl)-5-(6-ethoxypyrazin-2-yl)thiazole-2-carboxamide], the IC50 was < 100 nM.

In the case of `CCOc1cncc(-c2cnc(C(=O)N[C@@H](c3cc(NS(=O)(=O)C4CC4)ccn3)[C@H]3C[C@@H](N(C)C)C3)s2)n1` (single isomer, unassigned) [I-108], the half-inhibitory concentration (IC50) is < 100 nM.

On to `CCOc1cncc(-c2cnc(C(=O)N[C@@H](CN3[C@H](C)COC[C@@H]3C)c3cc(NS(=O)(=O)C4CC4)ccn3)s2)n1` (single isomer, unassigned) [I-109], for which the IC50 was < 100 nM.

As for `CCOc1cncc(-c2cnc(C(=O)N[C@H](CN3[C@H](C)COC[C@@H]3C)c3cc(NS(=O)(=O)C4CC4)ccn3)s2)n1` (single isomer, unassigned) [I-110], the IC50 is < 100 nM.

For the molecule `CCOc1cncc(-c2cnc(C(=O)N[C@@H](CN3CCOCC3(C)C)c3cc(NS(=O)(=O)C4CC4)ccn3)s2)n1` (single isomer, unassigned) [I-116], the IC50 is < 100 nM.

`CCOc1cncc(-c2cnc(C(=O)N[C@H](CN3CCOCC3(C)C)c3cc(NS(=O)(=O)C4CC4)ccn3)s2)n1` (single isomer, unassigned) [I-117]: the half-inhibitory concentration (IC50) was < 100 nM.

`CCOc1cncc(-c2cnc(C(=O)N[C@@H](CN3CCN(C(C)C)CC3)c3cc(NS(=O)(=O)C4CC4)ccn3)s2)n1` (single isomer, unassigned) [I-118]: the IC50 was < 100 nM.
